Melting point data for 115 molecules are collected here from a melting point compilation (Tetko et al.).

Peptide text beside a SMILES is read from it.

By melting point is commonly meant the temperature of the solid-liquid transition.

In turn, `O=[N+]([O-])C(Br)(Br)Br` registered a melting point of 10 °C.

As to `NN=C1c2ccccc2-c2ccccc21`, the melting point came out at 152 °C.

The molecule `COC(=O)NC=Cc1ccc(C=CNC(=O)OC)cc1` registered a melting point of 360 °C.

The molecule `Nc1n[nH]c(N)c1Cc1ccc(Cl)cc1` came in with a melting point of 165 to 167 °C.

As for `CSc1ccc2ccccc2c1`, the melting point turned out to be 63 °C.

Molecule `COc1ccc(CCC(C)=O)cc1` registered a melting point of 8 °C.

Turning to `C=C1C(=O)C23C(OC(C)=O)CC4C(C)(C)CCC(OC(C)=O)C4(C)C2C(OC(C)=O)CC1C3OC(C)=O` (stereo not given), the melting point turned out to be 277 °C.

Consider `O=C1C=C(Cl)C(=O)O1`, for which the melting point is 33 °C.

As for `c1ccc(-c2cc3ccccn3c2)cc1`, the melting point fell in the range of 211 to 214 °C.

As for `N#Cc1c(F)cccc1Cl`, the melting point is 58 °C.

In the case of `N=C(N)S(=O)O`, the melting point was found to be 126 °C.

`COc1ccc(CCC(=O)O)cc1OC` came in with a melting point of 98 °C.

As for `O=C(O)C1CC1C(=O)Nc1ccc(Cl)cc1Cl` (stereo not given), the melting point was found to be 196 °C.

On to `N#Cc1cccc(Cl)n1`, for which the melting point is 87 °C.

As to `COc1ccc(OC)c(CCl)c1`, the melting point was in the range of 69 to 71 °C.

For the molecule `FC(Cl)=C(F)Cl`, the melting point is -130 °C.

Molecule `Cc1ccc(F)c(CO)c1Cl` displayed a melting point of 69 °C.

As for `O=S(=O)(O)CCS(=O)(=O)O`, the melting point was found to be 173 °C.

Molecule `CCOC(=O)c1cc(-c2cccs2)n[nH]1` showed a melting point of 137 to 139 °C.

As for `CSC(S)=NCc1ccc(CN)cc1`, the melting point fell in the range of 152 to 153 °C.

As for `CC(C)(C)c1cc(C(C)(C)C)n(-c2ccc(N)cc2)n1`, the melting point fell in the range of 205 to 207 °C.

The molecule `COc1cc2c(cc1C(C)C)C(C(=O)O)C2` (stereo not given) had a melting point of 86 °C.

Take `O=CC(Br)(Br)Br`: the melting point was -57.5 °C.

As for `NC[C@H]1CC[C@H](C(=O)O)CC1`, the melting point turned out to be 300 °C.

Molecule `N[C@@H](CC(=O)O)C(=O)N[C@@H](Cc1ccccc1)C(=O)O` (H-Asp-Phe-OH) gave a melting point of 236 to 239 °C.

Take `CN1CCCN(c2ccc(C#N)cc2)CC1`: the melting point was in the range of 93 to 94 °C.

The molecule `NCc1ccc(-c2ccsc2)cc1` came in with a melting point of 116 to 117 °C.

`CCOCCOCC`: the melting point is -74 °C.

Regarding `COc1ccc(NS(=O)(=O)c2ccc(N)cc2)nn1`, the melting point amounted to 182 °C.

Turning to `CN(C)c1ccc(C2Nn3c(nnc3-c3ccc([N+](=O)[O-])cc3)S2)cc1` (stereo not given), the melting point was found to be 176 °C.

`NC(=O)c1ccc(F)c(F)c1` showed a melting point of 134 °C.

In the case of `Cc1nc2ccccc2c(C(=O)O)c1O`, the melting point turned out to be 200 °C.

The molecule `CCOC(=O)c1c(-c2ccco2)csc1N` returned a melting point of 86 to 89 °C.

The molecule `O=C1/C(=N\Nc2cccc([N+](=O)[O-])c2)C(C(F)(F)F)=NN1c1ccccc1` displayed a melting point of 150 °C.

In turn, `Cc1cc(O)c(C)c(C)c1O` showed a melting point of 173 °C.

As for `O=C(CBr)c1cc(-c2ccc(Cl)c(Cl)c2)no1`, the melting point is 114 to 118 °C.

The molecule `CC(CCC(=O)O)C1CCC2C3CCC4CC(O)CCC4(C)C3CC(O)C12C` (stereo not given) showed a melting point of 177 °C.

`COc1ccc(Cc2c(N)n[nH]c2N)cc1` registered a melting point of 152 to 154 °C.

On to `Cc1ccccc1-c1cc(-c2ccccc2)[nH]n1`, for which the melting point lay in the range of 107 to 108 °C.

As for `CCOC(=O)C(CCc1ccccc1)NC1CCc2ccccc2N(CC(=O)O)C1=O` (stereo not given), the melting point came to 148 °C.

In the case of `O=C(O)c1ccccc1N/N=C1/C(=O)N(c2ccccc2)N=C1C(F)(F)F`, the melting point amounted to 139 °C.

`O=c1cc(Cl)nc[nH]1` had a melting point of 194 to 195 °C.

For the molecule `COC(=O)c1ccccc1S(=O)(=O)NC(=O)N(C)c1nc(C)nc(OC)n1`, the melting point amounted to 142 °C.

For the molecule `COc1ccc(NCC(=O)Nc2ccc(OC)cc2)cc1`, the melting point came out at 132 °C.

Molecule `CN1C(=O)C=CC1=O` came in with a melting point of 95 °C.

In the case of `O=C1CCCCCCCCCCCCCCCO1`, the melting point worked out at 33.5 °C.

The molecule `CCCN(CCC)C(=O)COC(=O)c1ccccc1` returned a melting point of 20 °C.

Turning to `CNC(=S)C#N`, the melting point was 37 to 46 °C.

Turning to `O=C(OCC(=O)N1CCC[C@H]1C(=O)O)c1ccccc1`, the melting point was 116 °C.

Consider `CC(C)OC(=O)C1(S(=O)(=O)c2ccc([N+](=O)[O-])cc2)CCC1`, for which the melting point came out at 65.5 °C.

Take `CC(=O)c1cc(F)cc(F)c1`: the melting point was found to be 39 °C.

`CC(=O)Oc1cccc(I)c1`: the melting point was found to be 38 °C.

In turn, `O=C1COCC(=O)O1` registered a melting point of 90 to 95 °C.

On to `O=C(O)c1ccc(O)c(O)c1O`, for which the melting point stood at 221 °C.

For the molecule `OCC(CO)(CO)COCC(CO)(CO)COCC(CO)(CO)CO`, the melting point turned out to be 249 °C.

Take `Ic1ncc[nH]1`: the melting point amounted to 191 °C.

For the molecule `CC(=O)c1c(C)c(C)cc(C)c1C`, the melting point came out at 75 °C.

With `Cc1ccc(-n2cccc2C=O)cc1`, the melting point was in the range of 48 to 50 °C.

Consider `CC1(C)OCC2OC3OC(C)(C)OC3C2O1` (stereo not given), for which the melting point lay in the range of 42 to 46 °C.

Consider `COc1cccc(C)c1`, for which the melting point was -47 °C.

With `C[C@]1(O)C#CCCCCCC#C[C@@](C)(O)CC1`, the melting point is 100 °C.

On to `Cc1ccc(-c2csc(/C(C#N)=N\Nc3cccc([N+](=O)[O-])c3)n2)cc1`, for which the melting point was 225 °C.

Consider `O=C(O)C1C2CC3(OCCO3)C1CC2Cl` (stereo not given), for which the melting point lay in the range of 164 to 166 °C.

In the case of `Cc1ccccc1CCC(=O)O`, the melting point lay within 104 to 106 °C.

`O=C(Cc1ccccc1)OC(=O)Cc1ccccc1` had a melting point of 73.3 °C.

Molecule `CCN(CCO)c1ccc(N=Nc2ccc([N+](=O)[O-])cc2)cc1` gave a melting point of 161 °C.

Take `COC(=O)NN=Cc1c[n+]([O-])c2ccccc2[n+]1[O-]`: the melting point stood at 239 °C.

`CC1Sc2ccc(Cl)cc2-c2nc(N)ncc21` (stereo not given) registered a melting point of 181 to 183 °C.

The molecule `CCCC(CCC)C(=O)O` showed a melting point of 125 °C.

With `CCCCCC(C)=O`, the melting point was -35 °C.

Consider `Clc1cncc(Cl)c1Cl`, for which the melting point is 72 °C.

Molecule `CCC(CCC(C)C1CCC2C3CC=C4CC(O)CCC4(C)C3CCC12C)C(C)C` (stereo not given) gave a melting point of 147 °C.

With `CC(C)C(=O)Cl`, the melting point was -90 °C.

As for `CN(C)P(=O)(OP(=O)(N(C)C)N(C)C)N(C)C`, the melting point was found to be 17 °C.

For the molecule `C=C1N(C)c2ccccc2C1(C)C`, the melting point is -8 °C.

`OCc1cc2ccccc2s1` showed a melting point of 100 °C.

The molecule `Cc1ccc([C@@H]2CC(=O)[C@@H](c3ccccc3)[C@H](c3ccc(C)cc3)N2)cc1` showed a melting point of 148 °C.

`Cc1nc2ccccn2c1C=O` yielded a melting point of 117 to 118 °C.

`COc1cc(C)c(Cl)cc1S(N)(=O)=O`: the melting point is 170 °C.

In the case of `O=C(Oc1c(F)c(F)c(F)c(F)c1F)c1cccc(-c2nccs2)c1`, the melting point lay within 68.5 to 69.5 °C.

In turn, `O=C(Nc1ccc(Br)cc1Br)C(F)(F)C(F)(F)C(F)(F)C(F)(F)C(F)(F)C(F)(F)C(F)(F)C(F)(F)F` gave a melting point of 95 °C.

For `O=C(O)c1ccc(Br)c(C(=O)O)c1`, the melting point lay in the range of 297 to 299 °C.

Regarding `CC(C)(C)NCC(O)COc1cccc2c1CC(O)C(O)C2` (stereo not given), the melting point was 124 °C.

With `COc1ccc(C(N)=NO)cc1`, the melting point was in the range of 119 to 121 °C.

In turn, `CC(=O)Nc1ccc(C#N)c(C(F)(F)F)c1` registered a melting point of 170 to 173 °C.

`CCCCCCCCCCCCCCCCCC(C)C` showed a melting point of 18 °C.

As to `CC(C)(C)CCl`, the melting point was -20 °C.

Molecule `O=C(O)C1(c2ccc(F)cc2)CCCC1` displayed a melting point of 160 to 165 °C.

`COc1ccccc1-c1nnc2n1NC(c1ccc(Cl)cc1)S2` (stereo not given) registered a melting point of 203 °C.

`CC(C)c1cccc(C(C)C)c1O` returned a melting point of 18 °C.

With `Cc1ccc(C(=O)c2ccccc2)cc1`, the melting point amounted to 59.5 °C.

Molecule `CC1CCC(C(C)C)C(OC(=O)C(=O)C=Cc2ccccc2)C1` (stereo not given) displayed a melting point of 45.5 °C.

`O=C(OC1CCCCC1)C(=O)OC1CCCCC1` registered a melting point of 43.5 °C.

On to `N#CCSc1nc(=O)[nH]c2c1CCCC2`, for which the melting point was 223 to 225 °C.

Molecule `CSc1nc(N=Cc2ccc([N+](=O)[O-])cc2)nn1C` showed a melting point of 194 to 196 °C.

In turn, `CCN(CC)C(=O)c1ccccc1C(=O)N(CC)CC` displayed a melting point of 36 °C.

`O=C(NCO)c1cccnc1`: the melting point came to 142 °C.

For `COP(=S)(OC)SCc1nc(N)nc(N)n1`, the melting point stood at 165 °C.

In the case of `CCOC(=O)Cn1cnc(Cl)c1Cl`, the melting point fell in the range of 65 to 67 °C.

As for `O=C(C1=NOC2C(=O)N(c3cc(Cl)ccc3Cl)C(=O)C12)c1ccccc1` (stereo not given), the melting point was found to be 185 °C.

Consider `O=C1CCc2cccc3c2N1CC3`, for which the melting point was 112 °C.

The molecule `CCCCCCCCCCCCCCCCCCCCCCCCCCO` had a melting point of 80 °C.

Turning to `Cn1nc(C(=O)Cl)cc1-c1ccccc1`, the melting point fell in the range of 80 to 82 °C.

`COc1ccc(C(=O)CBr)c(OC)c1`: the melting point stood at 104 °C.

Consider `O=[N+]([O-])c1ccc(/C=C/c2ccccc2O)c([N+](=O)[O-])c1`, for which the melting point came out at 186 °C.

On to `N#CCCCCCC#N`, for which the melting point was -31.4 °C.

Regarding `CNCc1ccc(-c2cncnc2)cc1`, the melting point lay in the range of 45 to 46 °C.

For `COc1cc2c(c3oc(=O)c4c(c13)CCC4=O)C1C=COC1O2` (stereo not given), the melting point was 268 to 269 °C.

`CSc1nc(N)nc(-c2ccncc2)n1`: the melting point was 234 to 237 °C.

Molecule `O=[N+]([O-])c1ccc(NN=C(c2ccccc2)c2ccccc2)cc1` showed a melting point of 156 °C.

Consider `CCCCCOC(=O)CC`, for which the melting point was -73.1 °C.

The molecule `Cc1ccc2sc(S(=O)(=O)Cl)cc2c1` gave a melting point of 83 °C.

`N#CC1=C(N)Oc2ccc(Cl)cc2C1C(C#N)C#N` (stereo not given): the melting point fell in the range of 155 to 156 °C.

On to `CCCCCCCNC(=O)OCC1OC(OC)C(O)C(O)C1O` (stereo not given), for which the melting point was 103 to 105 °C.

As for `N#CCCn1cccc(C(F)(F)F)c1=O`, the melting point was 88 to 90 °C.
